The values below are quoted from earlier work in US9339581B2, “Absorbent and absorbent article provided therewith” (UNICHARM CORPORATION, priority 2012, dated 2016).

The structures appear in SMILES notation.

The conditions of this data set: at 20° C.; cited from earlier work.

`CCCCC(=O)CCCC` [5-nonanone]: the vapor pressure entry was “about 230 Pa”.
